In patent US9187415B2, “Sulfonamides as HIV protease inhibitors” (Merck Canada Inc., priority 2010, dated 2015):
pIC50: −log10 of the molar value. Where two headings read alike, the source gives them in different places.

Tests used:
[1] = molecular target: T1, HIV-1 protease (wild type) (Human immunodeficiency virus type 1 group M subtype B, UniProt P04585); assay: Protease Inhibition Assay (Pepcleave), inhibition of microbial expressed HIV protease; assay type: biochemical
T1 construct: made in house; host or cells: Escherichia coli
Protocol: Assay for Inhibition of Microbial Expressed HIV Protease
Inhibition studies of the reaction of the protease (which was expressed in Eschericia coli) with a peptide substrate [Val-Ser-Gln-Asn-(betanaphtyl)Ala-Pro-Ile-Val]. The inhibitor is first preincubated with the HIV-1 protease (wild type) enzyme in assay buffer (50 mM sodium acetate, pH 5.5, 100 mM NaCl, and 0.1% BSA) for 30 minutes at room temperature. Substrate is added to 400 micromolar in a total volume of 80 microliters containing 10 picomolar HIV-1 protease and the reaction is incubated for 1 hour at 30° C. The reaction is quenched with the addition of 120 microliters of 10% phosphoric acid. The product formation is determined after separation of product and substrate on a Zorbax Eclipse XDB-C18 column connected to an Agilent 1100 high performance liquid chromatography system with fluorescence detection (excitation 270 nanometer and emission 330 nanometer). Alternatively, the inhibitor is preincubated with enzyme and substrate as described above, but in a total volume of 20 microliters containing 20 picomolar HIV-1 protease and the reaction is incubated for 1 hour at 30° C. The reaction is quenched with the addition of 30 microliters of 1 micromolar indinavir (indinavir is also used as an internal standard), and the product formation is determined after separation of product and substrate on a Zorbax Eclipse XDB-C18 column connected to an API 4000 mass spectrometer (Applied Biosystems) with multiple reaction monitoring (transitions were 644.5/428.9 and 615.4/422.2 (M1/M3) for product and indinavir respectively). The extent of inhibition of the reaction is determined from the peak area of the products. HPLC of the products, independently synthesized, provided quantitation standards and confirmation of the product composition.
Protease Inhibition Assay (“Pepcleave”) data were collected based on the wild-type HIV-1 protease enzyme. The assay monitors the cleavage of a 8-mer peptide (VSQN[β-Nal]PIV) where the tyrosine at P1 position is replaced by β-Naphthyl-alanine. Upon cleavage of the peptide by HIV-1 protease, the product is separated from substrate by HPLC column and detected at Ex.=270 nm/Em=330 nm.

[2] = system: human immunodeficiency virus type 1; assay: Acute Infection Assay (Spread); assay type: cell-based, HIV-1
Description: Acute Infection Assay (“Spread”) data were generated in 10% FBS, and according to the methods disclosed by J. P. Vacca et al, “L-735,524: An orally bioavailable human immunodeficiency virus type 1 protease inhibitor,” Proc. Nati. Acad. Sci. USA, Vol. 91, pp. 4096-4100 (April 1994).

[3] = wild-type HIV-1 protease, mean of at least two independent experiments, read-out: Pepcleave Enzyme inhibition IC50
[4] = Human immunodeficiency virus 1, 10% FBS, mean of at least two independent experiments, read-out: Spread IC95

| Structure (SMILES) | pIC50 [1, 3] | IC95 [2, 4] [µM] | pIC50 [1] | IC95 ([2]; Human immunodeficiency virus 1, read-out: Spread IC95) [µM] |
| --- | --- | --- | --- | --- |
| COC(=O)N[C@H](C(=O)Nc1ccccc1CC[C@@H](CO)N(CCC(C)C)S(=O)(=O)c1ccc(N)cc1)C(c1ccccc1)c1ccccc1 [Example 1, N-{2-[(3S)-3-{[(4-aminophenyl)sulfonyl](3-methylbutyl)amino}-4-hydroxybutyl]phenyl}-Nα-(methoxycarbonyl)-β-phenyl-L-phenylalaninamide] | 10.70 | 0.074 | – | – |
| COC(=O)N[C@H](C(=O)Nc1ccccc1CC[C@@H](CO)N(C(C)C)S(=O)(=O)c1ccc(N)cc1)C(c1ccccc1)c1ccccc1 [Example 2, N-{2-[(3S)-3-{[(4-aminophenyl)sulfonyl](propan-2-yl)amino}-4-hydroxybutyl]phenyl}-Nα-(methoxycarbonyl)-β-phenyl-L-phenylalaninamide] | – | 0.919 | 8.92 | – |
| COC(=O)N[C@H](C(=O)Nc1ccccc1CC[C@@H](CO)N(CC1CC1)S(=O)(=O)c1ccc(N)cc1)C(c1ccccc1)c1ccccc1 [Example 3, N-{2-[(3S)-3-{[(4-aminophenyl)sulfonyl](cyclopropylmethyl)amino}-4-hydroxybutyl]phenyl}-Nα-(methoxycarbonyl)-β-phenyl-L-phenylalaninamide] | 9.70 | – | – | 0.307 |
| COC(=O)N[C@H](C(=O)Nc1ccccc1CC[C@@H](CO)N(Cc1cnoc1)S(=O)(=O)c1ccc(N)cc1)C(c1ccccc1)c1ccccc1 [Example 4] | – | 0.838 | 9.70 | – |
| COC(=O)N[C@H](C(=O)Nc1ccccc1CC[C@@H](CO)N(Cc1cncnc1C)S(=O)(=O)c1ccc(N)cc1)C(c1ccccc1)c1ccccc1 [Example 5, N-{2-[(3S)-3-{[(4-aminophenyl)sulfonyl][(4-methylpyrimidin-5-yl)methyl]amino}-4-hydroxybutyl]phenyl}-Nα-(methoxycarbonyl)-β-phenyl-L-phenylalaninamide] | – | 1.19 | 9.15 | – |
| COC(=O)N[C@H](C(=O)Nc1ccccc1CC[C@@H](CO)N(Cc1cn[nH]c1)S(=O)(=O)c1ccc(N)cc1)C(c1ccccc1)c1ccccc1 [Example 6, N-{2-[(3S)-3-{[(4-aminophenyl)sulfonyl](1H-pyrazol-4-ylmethyl)amino}-4-hydroxybutyl]phenyl}-Nα-(methoxycarbonyl)-β-phenyl-L-phenylalaninamide] | – | 2.34 | 10.15 | – |
| COC(=O)N[C@H](C(=O)Nc1ccccc1CC[C@@H](CO)N(CC(C)C)S(=O)(=O)c1ccc2ncsc2c1)C(c1ccccc1)c1ccccc1 [Example 7, N-(2-{(3S)-3-[(1,3-benzothiazol-6-ylsulfonyl)(2-methylpropyl)amino]-4-hydroxybutyl}phenyl)-Nα-(methoxycarbonyl)-β-phenyl-L-phenylalaninamide] | 8.80 | – | – | – |
| [2H]C([2H])([2H])C([2H])(C([2H])([2H])[2H])C([2H])([2H])N([C@H](CO)CCc1ccccc1NC(=O)[C@@H](NC(=O)OC)C(c1ccccc1)c1ccccc1)S(=O)(=O)c1ccc2ncsc2c1 [Example 8, N-(2-{(3S)-3-[(1,3-benzothiazol-6-ylsulfonyl)(2-methylpropyl-d9)amino]-4-hydroxybutyl}phenyl)-Nα-(methoxycarbonyl)-β-phenyl-L-phenylalaninamide] | – | 1.55 | 8.77 | – |
| COC(=O)N[C@H](C(=O)Nc1ccccc1CC[C@@H](CO)N(CCC(C)C)S(=O)(=O)c1ccc2ncsc2c1)C(c1ccccc1)c1ccccc1 [Example 9, N-(2-{(3S)-3-[(1,3-benzothiazol-6-ylsulfonyl)(3-methylbutyl)amino]-4-hydroxybutyl}phenyl)-Nα-(methoxycarbonyl)-β-phenyl-L-phenylalaninamide] | – | 0.957 | 9.52 | – |
| [2H]C([2H])([2H])C([2H])([2H])C([2H])([2H])N([C@H](CO)CCc1ccccc1NC(=O)[C@@H](NC(=O)OC)C(c1ccccc1)c1ccccc1)S(=O)(=O)c1ccc2ncsc2c1 [Example 10, N-(2-{(3S)-3-[(1,3-benzothiazol-6-ylsulfonyl)(propyl-d7)amino]-4-hydroxybutyl}phenyl)-Nα-(methoxycarbonyl)-β-phenyl-L-phenylalaninamide] | – | 1.19 | 9.15 | – |
| COC(=O)N[C@H](C(=O)Nc1ccccc1CC[C@@H](CO)N(Cc1cn(C)nc1C)S(=O)(=O)c1ccc2ncsc2c1)C(c1ccccc1)c1ccccc1 [Example 11, N-{2-[(3S)-3-{(1,3-benzothiazol-6-ylsulfonyl)[(1,3-dimethyl-1H-pyrazol-4-yl)methyl]amino}-4-hydroxybutyl]phenyl}-Nα-(methoxycarbonyl)-β-phenyl-L-phenylalaninamide] | – | 0.683 | 10.30 | – |
| COC(=O)N[C@H](C(=O)Nc1ccccc1CC[C@@H](CO)N(CC1CC(F)(F)C1)S(=O)(=O)c1ccc2ncsc2c1)C(c1ccccc1)c1ccccc1 [Example 12, N-{2-[(3S)-3-{(1,3-benzothiazol-6-ylsulfonyl)[(3,3-difluorocyclobutyl)methyl]amino}-4-hydroxybutyl]phenyl}-Nα-(methoxycarbonyl)-β-phenyl-L-phenylalaninamide] | 9.05 | 1.53 | – | – |
| COC(=O)N[C@@H](Cc1ccccc1Cl)C(=O)Nc1ccccc1CC[C@@H](CO)N(CCC(C)C)S(=O)(=O)c1ccc2ncsc2c1 [Example 16, N-(2-{(3S)-3-[(1,3-benzothiazol-6-ylsulfonyl)(3-methylbutyl)amino]-4-hydroxybutyl}phenyl)-2-chloro-Nα-(methoxycarbonyl)-L-phenylalaninamide] | 8.09 | – | – | – |
| COC(=O)N[C@@H](Cc1ccccc1Cl)C(=O)Nc1ccccc1CC[C@@H](CO)N(Cc1cn(C)nc1C)S(=O)(=O)c1ccc2ncsc2c1 [Example 17, N-{2-[(3S)-3-{(1,3-benzothiazol-6-ylsulfonyl)[(1,3-dimethyl-1H-pyrazol-4-yl)methyl]amino}-4-hydroxybutyl]phenyl}-2-chloro-Nα-(methoxycarbonyl)-L-phenylalaninamide] | 8.00 | – | – | – |
| [2H]C([2H])(c1ccccc1NC(=O)[C@@H](NC(=O)OC)C(c1ccccc1)c1ccccc1)C([2H])([2H])[C@@H](CO)N(CC(C)C)S(=O)(=O)c1ccc2ncsc2c1 [Example 21, N-(2-{(3S)-3-[(1,3-benzothiazol-6-ylsulfonyl)(2-methylpropyl)amino]-1-d2-2-d2-4-hydroxybutyl}phenyl)-Nα-(methoxycarbonyl)-β-phenyl-L-phenylalaninamide] | 8.43 | – | – | – |
| [2H]C([2H])([2H])C([2H])(C([2H])([2H])[2H])C([2H])([2H])N([C@H](CO)C([2H])([2H])C([2H])([2H])c1ccccc1NC(=O)[C@@H](NC(=O)OC)C(c1ccccc1)c1ccccc1)S(=O)(=O)c1ccc2ncsc2c1 [Example 22, N-(2-{(3S)-3-[(1,3-benzothiazol-6-ylsulfonyl)(2-methylpropyl-d7)amino]-1-d2-2-d2-4-hydroxybutyl}phenyl)-Nα-(methoxycarbonyl)-β-phenyl-L-phenylalaninamide] | 8.77 | – | – | – |
| [2H]C([2H])([2H])C([2H])([2H])N([C@H](CO)Cc1cccc(NC(=O)[C@@H](NC(=O)OC)C(c2ccccc2)c2ccccc2)c1)S(=O)(=O)c1ccc(N)cc1 [Example 33, N-{3-[(2S)-2-{[(4-aminophenyl)sulfonyl](ethyl-d5)amino}-3-hydroxypropyl]phenyl}-Nα-(methoxycarbonyl)-β-phenyl-L-phenylalaninamide] | 7.30 | – | – | – |
| COC(=O)N[C@H](C(=O)Nc1cccc(C[C@@H](CO)N(C(C)C)S(=O)(=O)c2ccc(N)cc2)c1)C(c1ccccc1)c1ccccc1 [Example 34, N-{3-[(2S)-2-{[(4-aminophenyl)sulfonyl](propan-2-yl)amino}-3-hydroxypropyl)phenyl}-Nα-(methoxycarbonyl)-β-phenyl-L-phenylalaninamide] | 7.38 | – | – | – |
| COC(=O)N[C@H](C(=O)Nc1cccc(C[C@@H](CO)N(C(C)C)S(=O)(=O)c2ccc(CO)cc2)c1)C(c1ccccc1)c1ccccc1 [Example 35, N-(3-{(2S)-3-hydroxy-2[{[4-(hydroxymethyl)phenyl]sulfonyl}(propan-2-yl)amino]propyl}phenyl)-Nα-(methoxycarbonyl)-β-phenyl-L-phenylalaninamide] | 7.72 | – | – | – |
